Laboratory results from patent publication US10597388B2, “Pyridazinone herbicides” (FMC CORPORATION, priority 2014, dated 2020).

Experiments:
Type in all cases: in vivo
[1] = test system: ryegrass, Italian (Italian ryegrass, Lolium multiflorum); test: Test A greenhouse herbicide test, pre- and postemergence
In short: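 Seeds sown in loam–sand blend got a preemergence directed soil spray of compound in non-phytotoxic solvent with surfactant. Postemergence treatment was given at 2–10 cm, one- to two-leaf stage. After ~10 d in greenhouse, injury was rated visually vs untreated controls, 0 (no effect) to 100 (complete control).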

[2] = test system: blackgrass (Alopecurus myosuroides); test: Test A greenhouse herbicide test, postemergence; details: for Blackgrass plant response rating: 0 to 100 scale, 0 is no effect, 100 is complete control
In short: (§1)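 Greenhouse postemergence test: formulated chemicals sprayed on one- to two-leaf plants (2 to 10 cm), grown in loam soil blended with sand. Injury assessed visually about 10 d later against untreated controls, scored 0 (no effect) to 100 (complete control).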

[3] = test system: galium (catchweed bedstraw, Galium aparine); test: Test A greenhouse herbicide test, postemergence; details: for Galium plant response rating: 0 to 100 scale, 0 is no effect, 100 is complete control
In short: as §1

[4] = test system: barnyardgrass (Echinochloa crus-galli); test: Test B flooded paddy test; details: 250 g ai/ha, Flood; visual rating on scale of 0 to 100 where 0 is no effect and 100 is complete control; 13 to 15 d after treatment
In short: (§2)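 Plants at the 2-leaf stage were flooded to 3 cm above soil, and test compounds were applied directly into the paddy water, which was held at that depth throughout. After 13 to 15 d in a greenhouse, injury was rated visually against untreated controls on a 0–100 scale (0 no effect, 100 complete control).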

[5] = test system: ducksalad (Heteranthera limosa); test: Test B flooded paddy test; details: 250 g ai/ha, Flood; visual rating on scale of 0 to 100 where 0 is no effect and 100 is complete control; 13 to 15 d after treatment
In short: as §2

rice (Oryza sativa) = test: Test B flooded paddy test; details: 250 g ai/ha, Flood; visual rating on scale of 0 to 100 where 0 is no effect and 100 is complete control; 13 to 15 d after treatment
In short: as §2

[6] = test system: sedge, umbrella (small-flower umbrella sedge, Cyperus difformis); test: Test B flooded paddy test; details: 250 g ai/ha, Flood; visual rating on scale of 0 to 100 where 0 is no effect and 100 is complete control; 13 to 15 d after treatment
In short: as §2

[7] = test system: foxtail, giant (giant foxtail, Setaria faberii); test: Test C greenhouse herbicide test, pre- and postemergence
In short: (§3)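 Each species was treated both before emergence, in a loam–sand soil mix, and after emergence, as 1- to 4-leaf seedlings in peat-based potting medium. Plants stayed in the greenhouse 13 to 15 d, then were scored from 0 (no effect) to 100 (complete control) relative to controls.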

[8] = test system: galium (catchweed bedstraw, Galium aparine); test: as above
In short: as §3

[9] = test system: oilseed rape (Brassica napus); test: as above
In short: as §3

[10] = Postemergence, 125 g ai/ha, 0 to 100 scale where 0 is no effect and 100 is complete control
[11] = Postemergence, 500 g ai/ha, visual rating after approx. 10 d, 0 to 100 scale (0 no effect, 100 complete control)
[12] = Preemergence, 500 g ai/ha, 0 to 100 scale where 0 is no effect and 100 is complete control
[13] = 125 g ai/ha, 0 to 100 scale where 0 is no effect and 100 is complete control
[14] = 500 g ai/ha, visual rating after approx. 10 d, 0 to 100 scale (0 no effect, 100 complete control)
[15] = Postemergence, 31 g ai/ha, scale 0 to 100 (0 no effect, 100 complete control)
[16] = Postemergence, 62 g ai/ha, 0 to 100 scale (0 no effect, 100 complete control)
[17] = Postemergence, 250 g ai/ha, scale 0 to 100, 0 no effect, 100 complete control, 13 to 15 d
[18] = Preemergence, 31 g ai/ha, scale 0 to 100, 0 is no effect, 100 is complete control
[19] = Preemergence, 62 g ai/ha, scale 0 to 100, 0 is no effect, 100 is complete control
[20] = Preemergence, 125 g ai/ha, scale 0 to 100, 0 is no effect, 100 is complete control
[21] = Preemergence, 250 g ai/ha, scale 0 to 100, 0 no effect, 100 complete control
[22] = postemergence, 125 g ai/ha, scale 0 to 100, 0 no effect, 100 complete control
[23] = Preemergence, 125 g ai/ha, 0 to 100 scale where 0 is no effect and 100 is complete control
[24] = 125 g ai/ha, visual rating after approx. 10 d, 0 to 100 scale (0 no effect, 100 complete control)
[25] = Postemergence, 31 g ai/ha, 0 to 100 scale (0 no effect, 100 complete control)
[26] = Postemergence, 125 g ai/ha, scale 0 to 100, 0 is no effect, 100 is complete control
[27] = postemergence, 62 g ai/ha, scale 0 to 100, 0 no effect, 100 complete control

SMILES | Plant response rating, Ryegrass, Italian [1, 10] | Plant response rating, Barnyardgrass [4] | Plant response rating, Ducksalad [5] | Plant response rating, Rice (rice (Oryza sativa)) | Plant response rating, Sedge, Umbrella [6] | Plant response rating, Foxtail, Giant [7, 17] | Plant response rating, Foxtail, Giant [7, 18] | Plant response rating, Foxtail, Giant [7, 19] | Plant response rating, Foxtail, Giant [7, 20] | Foxtail, Giant plant response rating [7, 21] | Plant response rating, Galium [8, 17] | Plant response rating, Galium [8, 18] | Plant response rating, Galium [8, 19] | Plant response rating, Galium [8, 20] | Galium plant response rating [8, 21] | Plant response rating, Oilseed Rape [9, 17] | Plant response rating, Oilseed Rape [9, 18] | Plant response rating, Oilseed Rape [9, 19] | Plant response rating, Oilseed Rape [9, 20] | Oilseed Rape plant response rating [9, 21] | also measured
Cc1nn(C)c(=O)c(-c2ccc(Cl)c3ccccc23)c1O [Compound 139] | 100 | 0 | 0 | 0 | 0 | 60 | 35 | 65 | 85 | 95 | 100 | 90 | 90 | 100 | 100 | 95 | 20 | 98 | 98 | 100 | Plant response rating, Ryegrass, Italian [1, 11]: 100; Plant response rating, Ryegrass, Italian [1, 12]: 100; Plant response rating, Blackgrass [2, 13]: 60; Plant response rating, Blackgrass [2, 14]: 90; Plant response rating, Galium [3, 13]: 100; Plant response rating, Galium [3, 14]: 100; Plant response rating, Foxtail, Giant [7, 15]: 20; Foxtail, Giant plant response rating [7, 16]: 30; Foxtail, Giant plant response rating [7, 22]: 30; Plant response rating, Galium [8, 15]: 95; Galium plant response rating [8, 16]: 95; Galium plant response rating [8, 22]: 100; Plant response rating, Oilseed Rape [9, 15]: 95; Oilseed Rape plant response rating [9, 16]: 95; Oilseed Rape plant response rating [9, 22]: 98
Cc1ccc2ccccc2c1-c1c(O)c(I)nn(C)c1=O [Compound 29] | 90 | 0 | 55 | 0 | 60 | 80 | 75 | 75 | 90 | 95 | 100 | 95 | 95 | 98 | 98 | 0 | 0 | 0 | 5 | 70 | Ryegrass, Italian plant response rating ([1]; Postemergence, 500 g ai/ha, 0 to 100 scale, 0 is no effect, 100 is complete control): 100; Ryegrass, Italian plant response rating [1, 23]: 80; Plant response rating, Ryegrass, Italian ([1]; Preemergence, 500 g ai/ha, 0 to 100 scale, 0 no effect, 100 complete control): 90; Plant response rating, Blackgrass [2, 24]: 70; Blackgrass plant response rating ([2]; 500 g ai/ha): 80; Plant response rating, Galium [3, 24]: 90; Galium plant response rating ([3]; 500 g ai/ha): 90; Foxtail, Giant plant response rating [7, 25]: 30; Plant response rating, Foxtail, Giant [7, 26]: 60; Foxtail, Giant plant response rating [7, 27]: 35; Galium plant response rating [8, 25]: 90; Plant response rating, Galium [8, 26]: 100; Galium plant response rating [8, 27]: 95; Oilseed Rape plant response rating [9, 25]: 0; Plant response rating, Oilseed Rape [9, 26]: 5; Oilseed Rape plant response rating [9, 27]: 0
CCC(=O)Oc1c(C)nn(C)c(=O)c1-c1ccc(Br)c2ccccc12 [Compound 134] | 100 | 0 | 0 | 0 | 0 | 45 | 25 | 75 | 70 | 80 | 100 | 100 | 98 | 98 | 98 | 100 | 55 | 90 | 90 | 98 | Plant response rating, Ryegrass, Italian [1, 11]: 100; Ryegrass, Italian plant response rating [1, 23]: 100; Plant response rating, Ryegrass, Italian [1, 12]: 100; Plant response rating, Blackgrass [2, 13]: 60; Plant response rating, Blackgrass [2, 14]: 70; Plant response rating, Galium [3, 13]: 100; Plant response rating, Galium [3, 14]: 100; Plant response rating, Foxtail, Giant [7, 15]: 15; Foxtail, Giant plant response rating [7, 16]: 25; Foxtail, Giant plant response rating [7, 22]: 35; Plant response rating, Galium [8, 15]: 95; Galium plant response rating [8, 16]: 95; Galium plant response rating [8, 22]: 100; Plant response rating, Oilseed Rape [9, 15]: 95; Oilseed Rape plant response rating [9, 16]: 100; Oilseed Rape plant response rating [9, 22]: 100
CCc1ccc2ccccc2c1-c1c(O)c(C)nn(C)c1=O [Compound 32] |  | 0 | 0 | 0 | 0 | 90 | 55 | 80 | 85 | 85 | 100 | 90 | 95 | 100 | 98 | 90 | 25 | 90 | 90 | 100 | Ryegrass, Italian plant response rating ([1]; Postemergence, 1000 g ai/ha, 0 to 100 scale, 0 is no effect, 100 is complete control): 100; Plant response rating, Ryegrass, Italian ([1]; Preemergence, 1000 g ai/ha, 0 to 100 scale, 0 no effect, 100 complete control): 100; Blackgrass plant response rating ([2]; 1000 g ai/ha): 90; Galium plant response rating ([3]; 1000 g ai/ha): 100; Foxtail, Giant plant response rating [7, 25]: 15; Plant response rating, Foxtail, Giant [7, 26]: 80; Foxtail, Giant plant response rating [7, 27]: 50; Galium plant response rating [8, 25]: 90; Plant response rating, Galium [8, 26]: 100; Galium plant response rating [8, 27]: 100; Oilseed Rape plant response rating [9, 25]: 10; Plant response rating, Oilseed Rape [9, 26]: 60; Oilseed Rape plant response rating [9, 27]: 60
Cc1nn(C)c(=O)c(-c2cccc3ccc(Br)cc23)c1O [Compound 126] | 90 | 0 | 30 | 0 | 0 | 25 |  |  |  |  | 98 |  |  |  |  | 85 |  |  |  |  | Plant response rating, Ryegrass, Italian [1, 11]: 100; Ryegrass, Italian plant response rating [1, 23]: 90; Plant response rating, Ryegrass, Italian [1, 12]: 100; Plant response rating, Blackgrass [2, 13]: 60; Plant response rating, Blackgrass [2, 14]: 70; Plant response rating, Galium [3, 13]: 100; Plant response rating, Galium [3, 14]: 100; Plant response rating, Foxtail, Giant [7, 15]: 5; Foxtail, Giant plant response rating [7, 16]: 15; Plant response rating, Foxtail, Giant [7, 26]: 15; Plant response rating, Galium [8, 15]: 90; Galium plant response rating [8, 16]: 95; Plant response rating, Galium [8, 26]: 98; Plant response rating, Oilseed Rape [9, 15]: 60; Oilseed Rape plant response rating [9, 16]: 80; Plant response rating, Oilseed Rape [9, 26]: 60
